Laboratory results taken from patent publication US9073880B2, “2-(2-phenylethenyl) 1,3-benzodiazepine derivatives useful for the treatment of cancer” (Yissum Research Development Company of the Hebrew …, priority 2010, dated 2015).

Test system: human colon carcinoma HCT15 cells
Assay: Cell proliferation, HCT15 (Example 4)
Assay type: cell-based
Settings: HCT-15, HCT15, colon cancer, compound in 2-hydroxypropyl-β-cyclodextrin
Protocol: Human ovary cancer A2780 cells lines were seeded at a density of 5000 cells/well, human melanoma A375 cells were plated at a density of 2,500 cells/well, human colon carcinoma HCT15 cells were plated at a density of 3,000 cells/well, human prostate carcinoma PC3 cells were plated at a density of 1,500 cells/well, human breast carcinoma MCF7 cells were plated at a density of 5,000 cells/well, human breast carcinoma MDA MB 468 cells were plated at a density of 6,000 cells/well, human myeloma U266, RPMI8226 and CAG cells were plated at a density of 10,000 cells/well. All cells were plated in 96-well plates in 90 μl growth medium containing 10% FCS, 100 units/ml penicillin and 100 μg/ml streptomycin. Compound 3 was added a day later in […] of 1% DMSO in DDW to obtain final concentrations of 0, 0.1, 0.3, 1, 3, and 10 μM. The final concentration of DMSO (0.1% DMSO) was kept constant in all samples. […] The optical density values were read at 630 nm in ELISA plate reader. Non-adhered cells were exposed to WST-1 reagent for 5 hours following 72 hours treatment with the inhibitors, and optical density values were read at 630 nm in ELISA plate reader. The data was analyzed in Microsoft Excel, using the vehicle control as 100% proliferation. […]

Compound	IC50
O=c1c(O)cc2cnc(/C=C/c3ccc(O)c(O)c3Br)sc-2c1O [Compound 5]	900 nM
O=c1c(O)cc2cnc(/C=C/c3cc(O)c(O)c(Br)c3)sc-2c1O [Compound 3]	700 nM
